Results reported in patent US8877946B2, “Benzylidene-indolinone compounds and their medical use” (National University of Singapore, priority 2011, dated 2014).
Where two headings read alike, the source gives them in different places.

Assays:
HuH7 cells = assay: MTT antiproliferative (growth inhibition) assay on HuH7 cells; format: cell-based, human; conditions: for IC50: Homo sapiens, Huh-7, MTT
From the text: (§1) MTT was purchased from DUCHEFA Biochemie ([…]). Sunitinib, and sodium dodecyl sulfate, bovine serum albuminwere obtained from Sigma Aldrich (Singapore). Sorafenib was purchase from Ontario Chem. Fetal bovine serum (FBS) was obtained from Invitrogen. Human hepatocellular carcinoma cells (HuH-7 and Hep G2), and human diploid fibroblast strain (IMR 90). HuH7 was obtained as gifts from Dr Ho Han Kiat, Department of Pharmacy, NUS. IMR90 and Hep G2 were purchased from American Type Culture Collection (ATCC). HuH-7 cells were cultured in DMEM (Dulbecco's Modified Eagle Medium, high glucose) with 10% v/v fetal bovine serum (FBS), 100 mg/L penicillin G and 100 mg/L streptomycin. IMR 90 cell were cultured in EMEM (Eagle's Minimum Essential Medium), with 10% v/v FBS and 100 mg/L penicillin G and 100 mg/L streptomycin. The cells were sub-cultured when HuH7 or Hep G2 reached a density of 70-80×10^5 cell/T75 flask, and IMR 90 reached 20×10^5 cell/T75 flask. Cells were used within 2-10 passages for viability experiments.
(§2) The anti-proliferative activity of the test compounds were determined by the MTT assay. An aliquot (200 μL, 3×10^4 cells/mL for HuH7, 3.75×10^4 cells/mL for Hep G2, and 2×10^4 cells/mL for IMR 90) of medium was added to each well of the microtitre plate. […] The existing medium was removed from each well and replaced by fresh medium (200 μL) containing a known concentration of test compound. The final concentration of DMSO in each well was maintained at 0.5% v/v. (1% v/v was also utilized if the compounds were not soluble) The test compounds were incubated with the cells for another 72 h at 37 deg C., 5% CO2. The medium was then removed from the well and replaced with FBS free medium (200 μL) and MTT (50 μL of 2 mg/mL solution in phosphate buffer saline, pH 7.4). The phosphate buffer saline comprises 10 mM of potassium phosphate and 137 mM sodium chloride. After incubation (3 h) at 37 deg C., 5% CO2, the supernatant was removed and a solution of 200 μL DMSO and 25 μL Sorenson buffer (0.1 M glycine, 0.1 M sodium chloride, adjusted to pH 10.5 with 0.1 M sodium hydroxide) was added to dissolve the formazan crystals in each well. Vehicle control were cells grown in 1% v/v DMSO/Medium for 72 h, 37 deg C., 5% CO2 while blank controls were wells that contained only 200 μL DMSO and 25 μL Sorenson buffer. Absorbances were measured at 570 nm on a microplate reader (Tecan, Infinite 200). The viability of cells at a given concentration of test compound was determined from the expression:
(§3) [formula] where abs_compound=absorbance of wells containing cells and test compound, abs_vehicle (Not the same as above. Change to abs_vehicle)=absorbance of vehicle control and abs_blank=absorbance of blank control.
(§4) Each concentration of test compound was evaluated at least 3 times on separate occasions, and two different stock solution were used. The IC50 value (concentration that inhibited 50% of cell growth) was determined from the sigmoidal curve obtained by plotting percentage viability versus logarithmic concentration of test compound using GraphPad Prism 5 (San Diego, USA).

Hep G2 = assay: MTT antiproliferative assay on Hep G2 cells; format: cell-based; conditions: Homo sapiens, HepG2, 72 h
From the text: as §1, §2, §3, §4

IMR 90 = assay: MTT antiproliferative assay on non-malignant IMR 90 fibroblasts; format: cell-based; conditions: non-malignant human lung fibroblast IMR 90, MTT, 72 h
From the text: as §1, §2, §3, §4

[1] = 72 h (Table 9), read-out: IC50 (μM) HuH7
[2] = 72 h incubation, mean and SD of 3 or more independent determinations (Tables 1-8), read-out: IC 50

Structure (SMILES) | IC50 (HuH7 cells; [1]) [µM] | IC50 (HuH7 cells; [2]) [µM] | IC50 (Hep G2) [µM] | IC50 (IMR 90) [µM] | potency relative to 1-10 on HuH7 (HuH7 cells; compared with 1-10 (original lead)) [×]
CNS(=O)(=O)c1ccc(/C=C2/C(=O)Nc3cc(Cl)ccc32)cc1 [Compound 1-21, (E)-4-(6-Chloro-2-oxo-1,2-dihydro-indol-3-ylidenemethyl)-N-methyl-benzenesulfonamide] | 15.3 ± 0.6 | 15.3 ± 0.6 | > 30 |  | 
CCNS(=O)(=O)c1cccc(/C=C2/C(=O)Nc3cc(Cl)ccc32)c1 [Compound 1-22, (E)-3-(6-Chloro-2-oxo-1,2-dihydro-indol-3-ylidenemethyl)-N-ethyl-benzenesulfonamide] | 0.84 ± 0.09 | 0.84 ± 0.09 | 3.96 ± 0.55 |  | 
CCCNS(=O)(=O)c1cccc(C=C2C(=O)Nc3cc(Cl)ccc32)c1 [Compound 1-23, E/Z-3-(6-Chloro-2-oxo-1,2-dihydro-indol-3-ylidenemethyl)-N-propyl-benzenesulfonamide] | 0.36 ± 0.04 | 0.36 ± 0.04 | 1.51 ± 0.11 |  | 
CC(C)NS(=O)(=O)c1cccc(C=C2C(=O)Nc3cc(Cl)ccc32)c1 [Compound 1-24, E/Z 3-(6-Chloro-2-oxo-1,2-dihydro-indol-3-ylidenemethyl)-N-isopropyl-benzenesulfonamide] | 1.93 ± 0.34 | 1.93 ± 0.34 | 5.46 ± 0.95 |  | 
O=C1Nc2ccc(Cl)cc2/C1=C\c1cccc(C(F)(F)F)c1 [Compound 2-7, (E)-5-Chloro-3-(3-(trifluoromethyl)benzylidene)-1,3-dihydro-indol-2-one, reference compound] | 0.81 ± 0.11 | 0.81 ± 0.11 | 1.5 ± 0.06 | 9.13 ± 1.12 | 
O=C1Nc2cc(F)ccc2/C1=C\c1ccccc1F [Compound 3-2, (E)-6-Fluoro-3-(2-fluoro-benzylidene)-1,3-dihydro-indol-2-one] | 0.91 ± 0.15 | 0.91 ± 0.15 | 1.82 ± 0.63 | 2.06 ± 0.33 | 
CCNS(=O)(=O)c1cccc(/C=C2/C(=O)Nc3cc(F)ccc32)c1 [Compound 3-11, (E)-3-(6-Fluoro-2-oxo-1,2-dihydro-indol-3-ylidenemethyl)-N-ethyl-benzenesulfonamide] | 0.39 ± 0.07 | 0.39 ± 0.07 | 1.61 ± 0.16 |  | 
CCCNS(=O)(=O)c1cccc(C=C2C(=O)Nc3cc(F)ccc32)c1 [Compound 3-12, E/Z-3-(6-Fluoro-2-oxo-1,2-dihydro-indol-3-ylidenemethyl)-N-propyl-benzenesulfonamide] | 0.12 ± 0.01 | 0.12 ± 0.01 | 0.72 ± 0.12 |  | 4
CC(C)NS(=O)(=O)c1cccc(/C=C2/C(=O)Nc3cc(F)ccc32)c1 [Compound 3-13, (E)-3-(6-Fluoro-2-oxo-1,2-dihydro-indol-3-ylidenemethyl)-N-isopropyl-benzenesulfonamide] | 2.29 ± 0.06 | 2.29 ± 0.06 | 4.22 ± 0.48 |  | 
CNS(=O)(=O)c1cccc(/C=C2/C(=O)Nc3ccc(F)cc32)c1 [Compound 4-16, (E)-3-(5-Fluoro-2-oxo-1,2-dihydro-indol-3-ylidenemethyl)-N-methyl-benzenesulphonamide] | 1.18 ± 0.02 | 1.18 ± 0.02 | 9.11 ± 0.32 | 9.92 ± 0.57 | 
CNC(=O)c1cc(Oc2ccc(NC(=O)Nc3ccc(Cl)c(C(F)(F)F)c3)cc2)ccn1 [Sorafenib, reference compound] | 5.35 ± 0.49 |  | 5.6 ± 0.21 | 11 ± 1.72 | 
CCN(CC)CCNC(=O)c1c(C)[nH]c(/C=C2\C(=O)Nc3ccc(F)cc32)c1C [sunitinib, reference compound] | 5.6 ± 0.12 |  | 5.07 ± 0.07 | 6.32 ± 1.24 | 

The next lines start with results.

IC50 (HuH7 cells; [1]) [µM] | IC50 (HuH7 cells; [2]) [µM] | Structure (SMILES) | IC50 (Hep G2) [µM] | IC50 (IMR 90) [µM] | potency relative to 1-10 on HuH7 (HuH7 cells; compared with 1-10 (original lead)) [×]
 | 19.2 ± 3.25 | O=C1Nc2cc(F)c(F)cc2/C1=C\c1cccc(F)c1 [Compound 7-3, (E)-5,6-Difluoro-3-(3-fluorobenzylidene)-1,3-dihydro-indol-2-one] |  |  | 
 | > 30 | O=C1Nc2cc(F)c(F)cc2/C1=C\c1ccccc1C(F)(F)F [Compound 7-5, (E)-5,6-Difluoro-3-(2-trifluoromethyl-benzylidene)-1,3-dihydro-indol-2-one] |  |  | 
0.82 ± 0.2 | 0.82 ± 0.2 | O=C1Nc2cc(F)c(F)cc2/C1=C\c1cccc(C(F)(F)F)c1 [Compound 7-6, (E)-5,6-Difluoro-3-(3-trifluoromethyl-benzylidene)-1,3-dihydro-indol-2-one] | 0.69 ± 0.02 | 8.53 ± 0.6 | 
 | 10.6 ± 0.68 | O=C1Nc2cc(F)c(F)cc2/C1=C\c1ccc(C(F)(F)F)cc1 [Compound 7-7, (E)-5,6-Difluoro-3-(4-(trifluoromethyl)benzylidene)-1,3-dihydro-indol-2-one] |  |  | 
 | 5.61 ± 0.26 | O=C1Nc2cc(F)c(F)cc2/C1=C\c1cccc(OC(F)(F)F)c1 [Compound 7-8, (E)-5,6-Difluoro-3-(3-trifluoromethoxyl-benzylidene)-1,3-dihydro-indol-2-one] |  |  | 
 | 13.9 ± 2.03 | CS(=O)(=O)c1cccc(/C=C2/C(=O)Nc3cc(F)c(F)cc32)c1 [Compound 7-9, (E)-5,6-Difluoro-3-(3-methanesulfonylbenzylidene)-1,3-dihydro-indol-2-one] |  |  | 
 | 2.76 ± 0.16 | CNS(=O)(=O)c1cccc(C=C2C(=O)Nc3cc(F)c(F)cc32)c1 [Compound 7-10] |  |  | 
 | 5.56 ± 0.06 | O=C1Nc2ccccc2/C1=C\c1cccc(C(F)(F)F)c1 [Compound 8-1, (E) 3-(3-Trifluoromethyl-benzylidene)-1,3-dihydro-indol-2-one] |  |  | 
 | > 30 | O=C1Nc2ccccc2C1=Nc1cccc(C(F)(F)F)c1 [Compound 8-2, (E/Z) 3-(3-Trifluoromethyl-phenylimino)-1,3-dihydro-indol-2-one] |  |  | 
 | 6.74 ± 1.23 | CN1C(=O)/C(=C/c2cccc(C(F)(F)F)c2)c2ccccc21 [Compound 8-3, (E)-1-Methyl-3-(3-trifluoromethyl-benzylidene)-1,3-dihydro-indol-2-one] |  |  | 
 | 20.1 ± 1.72 | O=C1Nc2cc(Cl)ccc2C1=Nc1cccc(C(F)(F)F)c1 [Compound 8-4, (E/Z) 6-Chloro-3-(3-trifluoromethyl-phenylimino)-1,3-dihydro-indol-2-one] |  |  | 
 | 1.14 ± 0.19 | CN1C(=O)/C(=C/c2cccc(C(F)(F)F)c2)c2ccc(Cl)cc21 [Compound 8-5, (E)-6-Chloro-1-methyl-3-(3-trifluoromethyl-benzylidene)-1,3-dihydro-indol-2-one] |  |  | 
 | 20.3 ± 3.53 | O=C1Nc2ccc(Cl)cc2C1=Nc1cccc(C(F)(F)F)c1 [Compound 8-6, (E/Z) 5-Chloro-3-(3-trifluoromethyl-phenylimino)-1,3-dihydro-indol-2-one] |  |  | 
 | 23.13 ± 0.21 | O=C1Nc2ccc(F)cc2C1=Nc1cccc(C(F)(F)F)c1 [Compound 8-7, (E/Z)-5-Fluoro-3-(3-trifluoromethyl-phenylimino)-1,3-dihydro-indol-2-one] |  |  | 
